This note sets out measurements from US20080076824A1, “Compounds That Inhibit Replication Of Human Immunodeficiency Virus” (priority 2004, published 2008).

Converted amounts (≈) assume the structure as drawn. Like-named read-outs stand apart in the source and are kept apart here. Non-standard residues stand in square brackets, D forms with d. Residues, ends and D or L forms follow the SMILES beside them. pGlu = O=C1CC[C@@H](C(=O)O)N1

Data set [1] deals with Respiratory syncytial virus. The note with it: HeLa; reduces virus-induced cytopathogenicity by 50%.
The test system of data set [2] is Vero cell cultures.
The subject of data set [3] is HeLa cell cultures.
Data set [4] concerns Coxsackie virus B4. Description: Antiviral activity in HeLa cell cultures, Coxsackie virus B4. In kind it is cell-based. The method, then: (§1) The cytotoxicity and antiviral activity of various concentrations of G-NH2 and GPG-NH2 were evaluated in cell cultures that were infected with various types of viruses. Conventional host cell culture, viral infection, and infectivity analysis for each different type of cell and virus were followed. Compounds that were known to inhibit replication of the particular types of viruses analyzed were used as controls.

The test system of data set [5] is Sindbis virus. The conditions noted are these: Vero; reduces virus-induced cytopathogenicity by 50%.
Data set [6] deals with Vesicular stomatitis virus. The conditions noted are these: HeLa; reduces virus-induced cytopathogenicity by 50%.
Data set [7] deals with Reovirus-1. The conditions noted are these: Vero; reduces virus-induced cytopathogenicity by 50%. On the technique in general: Damage to the host cells serves as the signal in cytopathic effect assays.
Data set [8] concerns Punta Toro virus. The conditions noted are these: Vero; reduces virus-induced cytopathogenicity by 50%.
The test system of data set [9] is Parainfluenza-3 virus. The note with it: Vero; reduces virus-induced cytopathogenicity by 50%.
The subject of data set [10] is Coxsackie virus B4. Description: Antiviral activity in Vero cell cultures, Coxsackie virus B4. In kind it is cell-based. The method, then: as §1
Data set [11] concerns Vero cell cultures. Description: Cytotoxicity in Vero cell cultures (cell morphology). The conditions noted are these: alteration of normal cell morphology.
The test system of data set [12] is Herpes simplex virus-1 (KOS). Description: microbe, parasite or virus in culture. The note with it: Human alphaherpesvirus 1, HEL, read-out: Minimum inhibitory concentration Herpes simplex virus-1 (KOS).
Data set [13] deals with Reovirus-1. The data set is described as follows: organism not typed. The conditions noted are these: Vero, read-out: Minimum inhibitory concentration Reovirus-1.
The test system of the next data set is Vaccinia virus. Description: microbe, parasite or virus in culture. The conditions noted are these: Orthopoxvirus vaccinia, HEL, read-out: Minimum inhibitory concentration Vaccinia virus.
The subject of data set [14] is Vesicular stomatitis virus. The data set is described as follows: microbe, parasite or virus in culture. The note with it: HeLa, read-out: Minimum inhibitory concentration Vesicular stomatitis virus.
Data set [15] relates to Herpes simplex virus-1 TK^− KOS ACV^r. The data set is described as follows: microbe, parasite or virus in culture. The note with it: Human alphaherpesvirus 1, HEL, read-out: Minimum inhibitory concentration Herpes simplex virus-1 TK^− KOS ACV^r.
Data set [16] has as its system Sindbis virus. The data set is described as follows: microbe, parasite or virus in culture. The conditions noted are these: Vero, read-out: Minimum inhibitory concentration Sindbis virus.
Data set [17] concerns HeLa cell cultures. The data set is described as follows: Cytotoxicity in HeLa cell cultures (cell morphology). The conditions noted are these: alteration of normal cell morphology.
In data set [18] the test system is Parainfluenza-3 virus. Description: organism not typed. The note with it: Vero, read-out: Minimum inhibitory concentration Parainfluenza-3 virus.
Data set [19] deals with Herpes simplex virus-2 (G). Description: microbe, parasite or virus in culture. The note with it: Human alphaherpesvirus 2, HEL, read-out: Minimum inhibitory concentration Herpes simplex virus-2 (G).
The test system of data set [20] is Respiratory syncytial virus. The data set is described as follows: microbe, parasite or virus in culture. The conditions noted are these: human respiratory syncytial virus, HeLa, read-out: Minimum inhibitory concentration Respiratory syncytial virus.
Data set [21] has as its system Punta Toro virus. The data set is described as follows: microbe, parasite or virus in culture. The conditions noted are these: Vero, read-out: Minimum inhibitory concentration Punta Toro virus.
A further data set deals with HEL cell cultures. The data set is described as follows: Cytotoxicity in HEL cell cultures (cell morphology). The conditions noted are these: alteration of normal cell morphology.
The subject of data set [22] is Vesicular stomatitis virus. Description: microbe, parasite or virus in culture. The conditions noted are these: HEL, read-out: Minimum inhibitory concentration Vesicular stomatitis virus.
Data set [23] has as its target T1, dipeptidylpeptidase activity associated with BS (Bos taurus, UniProt P81425).
T1 construct: from tissue; host or cells: fetal bovine serum
The data set is described as follows: Inhibition of dipeptidylpeptidase activity of fetal bovine serum (substrate GP-pNA). In kind it is biochemical. The note with it: read-out: 50% inhibitory concentration (IC50).

The next data set in a line: in vitro. The note with it: human.
The next data set concerns HIV-1 (IIIB). The note with it: in words.
The next data set concerns HIV-2 (ROD). Description: microbe, parasite or virus in culture. In kind it is cell-based. The conditions noted are these: 2 (ROD). The method, then:
Human T-lymphocytic CEM cells (4.5×10^5 cells per ml) were suspended in fresh cell culture medium and infected with HIV-1 (IIIB and NL4.3) or HIV-2 (ROD or EHO) at 100 CCID50 (1 CCID50 being the virus dose infective for 50% of the cell cultures) per ml of cell suspension. Then, 100 μl of the infected cell suspension were transferred to microplate wells, mixed with 100 μl of appropriate (freshly prepared) dilutions of the test compounds (i.e., at final concentrations of […]), and were further incubated at 37° C. After 4 to 5 days, giant cell formation was recorded microscopically in the CEM cell cultures. […] (See Table 1).
MT-4, C8166 or CEM cells (4 to 5×10^5 cells per ml) were suspended in fresh culture medium (RPMI-1640 medium supplemented with 10% fetal bovine serum (FBS) (BioWittaker Europe, Verviers, Belgium), 2 mM L-glutamine and […] NaHCO3). Subsequently, the cells were infected with HIV-1 (IIIB) or HIV-2(ROD) at ˜100 CCID50 (1 CCID50 being the dose infective for 50% of the cell cultures) per ml of cell suspension. Then, 100 μl of the infected cell suspension were transferred to 96-well microplate wells, mixed with 100 μl of the appropriate (5-fold) dilutions of the test compounds and further incubated at 37° C. After 4 to 5 days, giant cell formation was recorded microscopically in the CEM and C8166 cell cultures. The MT-4 cell cultures were treated with trypan blue and the number of viable cells was determined.

The test system of the next data set is HIV-2 (EHO). As to the method:
Human T-lymphocytic CEM cells (4.5×10^5 cells per ml) were suspended in fresh cell culture medium and infected with HIV-1 (IIIB and NL4.3) or HIV-2 (ROD or EHO) at 100 CCID50 (1 CCID50 being the virus dose infective for 50% of the cell cultures) per ml of cell suspension. Then, 100 μl of the infected cell suspension were transferred to microplate wells, mixed with 100 μl of appropriate (freshly prepared) dilutions of the test compounds (i.e., at final concentrations of […]), and were further incubated at 37° C. After 4 to 5 days, giant cell formation was recorded microscopically in the CEM cell cultures.

Data set [24] has as its target T2, CD26/dipeptidylpeptidase IV (Homo sapiens, UniProt P27487).
T2 construct: made in house; by own knowledge a natural human source (seminal plasma), not recombinant
Description: Conversion of GPG-NH2 to GP-OH and G-NH2 by purified CD26. In kind it is biochemical. As to the method: In some experiments, approximately, 100 μM GPG-NH2 was exposed to 25 units/l of purified CD26 and the mixture was incubated for up to 400 minutes at room temperature. The lymphocyte surface glycoprotein CD26/dipeptidylpeptidase IV was purified as described before. (See De Meester, J. Immunol. Methods, 189:99-105 (1996), herein expressly incorporated by reference in its entirety). At different time points, an aliquot of the reaction mixture was withdrawn and analyzed on an electrospray ion trap mass spectrometer (Esquire, Bruker, Bremen, Germany). The appearance of the dipeptide GP-OH upon release from the amino terminal end of the GPG-NH2 molecule, as well as, the disappearance of intact GPG-NH2 from the reaction mixture was determined and monitored by electrospray ion trap mass spectometric analysis at different time points (See FIG. 3). Under these experimental conditions, CD26 released GP-OH in a time-dependent manner from GPG-NH2, and virtually completely converted GPG-NH2 to GP-OH and G-NH2 within 4 to 6 hrs of the reaction.
Next, the conversion of radiolabeled [^14C]GPG-NH2 to [^14C]G-NH2 by purified CD26, fetal bovine serum (FBS), human serum (HS) and CEM cell suspensions was analyzed. […] A variety of these [^14C]GPG-NH2 concentrations were exposed to purified CD26, FBS, HS and CEM cell suspensions and the conversion to G-NH2 was analyzed. […]

[25] abbreviates: reduces virus-induced cytopathogenicity by 50%.
[26] abbreviates: Enterovirus B, B4, reduces virus-induced cytopathogenicity by 50%, read-out: Minimum inhibitory concentration Coxsackie virus B4.

T1 sequence (P81425 38-765 limits assumed): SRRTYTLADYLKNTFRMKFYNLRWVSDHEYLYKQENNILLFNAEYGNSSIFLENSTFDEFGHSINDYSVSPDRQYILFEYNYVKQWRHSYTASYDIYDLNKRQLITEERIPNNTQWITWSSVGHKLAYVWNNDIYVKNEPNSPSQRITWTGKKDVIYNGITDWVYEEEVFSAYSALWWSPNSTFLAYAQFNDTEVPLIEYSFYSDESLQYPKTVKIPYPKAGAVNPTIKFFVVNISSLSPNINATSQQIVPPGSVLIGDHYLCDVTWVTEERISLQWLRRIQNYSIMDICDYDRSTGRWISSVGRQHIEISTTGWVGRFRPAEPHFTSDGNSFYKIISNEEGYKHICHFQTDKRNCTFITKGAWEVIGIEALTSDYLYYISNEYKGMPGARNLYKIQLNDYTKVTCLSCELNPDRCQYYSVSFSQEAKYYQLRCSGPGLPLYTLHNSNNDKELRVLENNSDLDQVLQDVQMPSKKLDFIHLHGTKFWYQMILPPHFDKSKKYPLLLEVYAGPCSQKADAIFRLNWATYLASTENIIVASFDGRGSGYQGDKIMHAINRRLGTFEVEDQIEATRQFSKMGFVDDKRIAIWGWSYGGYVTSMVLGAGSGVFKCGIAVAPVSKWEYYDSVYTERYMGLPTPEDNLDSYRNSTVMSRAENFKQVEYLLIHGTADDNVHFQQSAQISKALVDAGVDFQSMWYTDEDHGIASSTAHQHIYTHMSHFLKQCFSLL
T2 sequence (P27487 whole entry): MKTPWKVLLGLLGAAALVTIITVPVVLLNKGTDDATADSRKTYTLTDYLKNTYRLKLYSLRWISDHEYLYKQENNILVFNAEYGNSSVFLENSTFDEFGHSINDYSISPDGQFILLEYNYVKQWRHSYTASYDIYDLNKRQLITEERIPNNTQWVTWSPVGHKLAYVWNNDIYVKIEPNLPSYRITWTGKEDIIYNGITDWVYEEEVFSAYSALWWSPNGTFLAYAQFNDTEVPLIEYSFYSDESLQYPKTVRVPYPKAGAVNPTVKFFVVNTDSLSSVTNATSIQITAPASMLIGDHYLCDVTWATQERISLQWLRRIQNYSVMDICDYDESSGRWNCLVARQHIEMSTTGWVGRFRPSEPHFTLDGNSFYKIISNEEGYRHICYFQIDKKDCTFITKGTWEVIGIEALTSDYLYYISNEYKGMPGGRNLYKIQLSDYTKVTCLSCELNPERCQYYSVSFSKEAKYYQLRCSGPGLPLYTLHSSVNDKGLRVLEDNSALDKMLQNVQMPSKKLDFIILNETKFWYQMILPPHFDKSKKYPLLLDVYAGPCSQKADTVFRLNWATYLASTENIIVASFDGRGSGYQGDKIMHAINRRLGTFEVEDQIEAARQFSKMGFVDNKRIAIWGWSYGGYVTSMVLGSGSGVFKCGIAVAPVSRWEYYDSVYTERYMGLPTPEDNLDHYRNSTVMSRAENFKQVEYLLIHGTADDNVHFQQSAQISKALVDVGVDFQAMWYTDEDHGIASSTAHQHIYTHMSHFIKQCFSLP

As for `Nc1ncnc2c1ncn2C[C@H](O)CO` [(S)-DHPA, reference compound], the “Minimum inhibitory concentration Respiratory syncytial virus” value in data set [1] was more than 400 µg/mL. Also, the Minimum cytotoxic concentration with Vero cell cultures [2] and in the data set on HeLa cell cultures [3] was more than 400 µg/mL in each case. For the same molecule, the “Minimum inhibitory concentration Coxsackie virus B4” value in the data set with Coxsackie virus B4 [4] (setting [25]) and with Coxsackie virus B4 [10] (setting [25]) was more than 400 µg/mL in each case. In the data set with Sindbis virus [5], the “Minimum inhibitory concentration Sindbis virus” value is more than 400 µg/mL. Also, in [6], the “Minimum inhibitory concentration Vesicular stomatitis virus” value stood at 240 µg/mL (≈ 1150 µM). Also, the “Minimum inhibitory concentration Reovirus-1” value with Reovirus-1 [7] stood at 80 µg/mL (≈ 382 µM). Also, in the data set on Punta Toro virus [8], the “Minimum inhibitory concentration Punta Toro virus” value was more than 400 µg/mL. In addition, the “Minimum inhibitory concentration Parainfluenza-3 virus” value in the data set on Parainfluenza-3 virus [9] was 240 µg/mL (≈ 1150 µM).
`O=c1[nH]c(=O)n([C@H]2C[C@H](O)[C@@H](CO)O2)cc1/C=C/Br` [BVDU]: the results for the Minimum cytotoxic concentration in the data set on Vero cell cultures [11], in the data set on HeLa cell cultures [17] and in the data set with HEL cell cultures were more than 400 µg/mL, “≧400 μg/ml” and more than 400 µg/mL, respectively. Also, the EC50 in data set [12] is 0.0256 µg/mL (≈ 0.0768 µM); in the data set on Reovirus-1 [13], more than 400 µg/mL; with Vaccinia virus, 0.64 µg/mL (≈ 1.92 µM); in data set [14], more than 400 µg/mL; in [15] it was 400 µg/mL (≈ 1200 µM); in the data set with Sindbis virus [16], more than 400 µg/mL. In addition, the EC50 is more than 400 µg/mL in the data set on Parainfluenza-3 virus [18]; more than 400 µg/mL in the data set with Coxsackie virus B4 [4] (setting [26]); more than 400 µg/mL in data set [19]; more than 400 µg/mL in data set [20]; more than 400 µg/mL in the data set with Punta Toro virus [21]; 400 µg/mL (≈ 1200 µM) in data set [22]. Besides, in the data set with Coxsackie virus B4 [10] (setting [26]), the EC50 was more than 400 µg/mL.
For the molecule `CCC(C)C(N)C(=O)N1CCCC1` [IlePyr, L-isoleucinepyrrolidine], the IC50 in data set [23] stood at 99 µM.
Turning to `NC(=O)CNC(=O)[C@@H]1CCCN1C(=O)[C@@H]1CCC(=O)N1` [PyrQ-PG-NH2, cyclic pyrroglutaminylprolylglycinamide] ([pGlu]-Pro-Gly-NH2), the EC50 in the data set “in vitro”, in the data set with HIV-2 (ROD) and with HIV-2 (EHO) was more than 2000 µM in each case. Besides, the “inhibition of HIV replication in cell culture” value in the data set with HIV-1 (IIIB) is “ineffective”. In addition, the “release of G-NH2 by CD26” value in [24] is given as “unable to release G-NH2”.
